Assay results reported in US8101732B2, “Methods of producing validamycin A analogs and uses thereof” (State of Oregon acting by and through the State Board of …, priority 2008, dated 2012).

System: Pellicularia sasakii (=R. solani)
Experiment: Fungal growth inhibitory assay (agar plug assay)
Type: cell-based
Conditions: growth monitored after two days, FIG. 4
Description: Fungal growth inhibitory assay of 1,1′-bis-valienamine (3) and validienamycin (4): 1% agar (14 mL) was mixed with the compounds (dissolved in 1 mL H2O) and then plated into Petri dishes. Discs of PDA agar with mycelia of Pellicularia sasakii were placed in the center of the above plates as the indicator strain for bioassay of the compounds. The plates were incubated at 30° C. for 2 days.
Antifungal activity assays of compounds 3 and 4 were tested against Pellicularia sasakii (=R. solani) using an agar plug assay (Minagawa et al., Chembiochem 8: 632-641, 2007). Agar plugs with diameter of 5 mm and containing P. sasakii mycelia were placed in the center of agar plates that contain each compound and the growth of the pathogen was monitored after two days. Active compounds were determined based on their ability to inhibit the expansion of the fungal mycelia on the Petri dishes.

Row | SMILES | fungistatic activity (inhibition of expansion of the fungal mycelia) (lower concentration (0.02 mM) in agar plate) | fungistatic activity (inhibition of expansion of the fungal mycelia) (0.2 mM concentration in agar plate)
1 | OCC1=C[C@H](N[C@H]2C[C@H](CO)[C@@H](O[C@@H]3OC(CO)[C@@H](O)C(O)[C@H]3O)[C@H](O)[C@H]2O)[C@H](O)[C@@H](O)[C@@H]1O (some centres unmarked) [Compound 1, validamycin A] | the most active compound among those evaluated | 
2 | OCC1=C[C@H](N[C@H]2C=C(CO)[C@@H](O)[C@H](O)[C@H]2O)[C@H](O)[C@@H](O)[C@@H]1O [Compound 4, validienamycin] |  | comparable fungistatic activity with 1 and 2
